Measurements published in patent US20260183295A1, “METHODS AND COMPOSITIONS FOR TREATING CANCER” (Onconova Therapeutics, Inc., priority 2022, published 2026).

What was measured:
Assay in all cases: CETSA-MS, MDA-MB-231 intact cells
Assay type in all cases: cell-based
Details in all cases: 2 μM and 20 μM
ELAVL1 = target: T1, ELAVL1 (Homo sapiens, UniProt Q15717)
T1 construct: 148 targets unique to Compound 1 in MDA-MB-231 intact cells; endogenous in cells; host or cells: MDA-MB-231
In short: (§1)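 MS-based cellular thermal shift in live MDA-MB-231: incubate, heat across gradient, lyse, keep soluble fraction, precipitate, digest, label, run proteomics.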

ILF3 = target: T2, ILF3 (Homo sapiens, UniProt Q12906)
T2 construct: endogenous in cells; host or cells: MDA-MB-231
In short: as §1

GSK3B = target: T3, GSK3B (Homo sapiens, UniProt P49841)
T3 construct: endogenous in cells; host or cells: MDA-MB-231
In short: as §1

STK10 = target: T4, STK10 (Homo sapiens, UniProt O94804)
T4 construct: endogenous in cells; host or cells: MDA-MB-231
In short: as §1

PRPF4B = target: T5, PRPF4B (Homo sapiens, UniProt Q13523)
T5 construct: endogenous in cells; host or cells: MDA-MB-231
In short: as §1

LEO1 = target: T6, LEO1 (Homo sapiens, UniProt Q8WVC0)
T6 construct: endogenous in cells; host or cells: MDA-MB-231
In short: as §1

RNF5 = target: T7, RNF5 (Homo sapiens, UniProt Q99942)
T7 construct: endogenous in cells; host or cells: MDA-MB-231
In short: as §1

MTG1 = target: T8, MTG1 (Homo sapiens, UniProt Q9BT17)
T8 construct: endogenous in cells; host or cells: MDA-MB-231
In short: as §1

HNRNPL = target: T9, HNRNPL (Homo sapiens, UniProt P14866)
T9 construct: endogenous in cells; host or cells: MDA-MB-231
In short: as §1

STK3 = target: T10, STK3 (Homo sapiens, UniProt Q13188)
T10 construct: endogenous in cells; host or cells: MDA-MB-231
In short: as §1

IGFBP4 = target: T11, IGFBP4 (Homo sapiens, UniProt P22692)
T11 construct: endogenous in cells; host or cells: MDA-MB-231
In short: as §1

TIMP2 = target: T12, TIMP2 (Homo sapiens, UniProt P16035)
T12 construct: endogenous in cells; host or cells: MDA-MB-231
In short: as §1

TTK = target: T13, TTK (Homo sapiens, UniProt P33981)
T13 construct: endogenous in cells; host or cells: MDA-MB-231
In short: as §1

NAP1L1 = target: T14, NAP1L1 (Homo sapiens, UniProt P55209)
T14 construct: endogenous in cells; host or cells: MDA-MB-231
In short: as §1

AXL = target: T15, AXL (Homo sapiens, UniProt P30530)
T15 construct: endogenous in cells; host or cells: MDA-MB-231
In short: as §1

SCP2 = target: T16, SCP2 (Homo sapiens, UniProt P22307)
T16 construct: endogenous in cells; host or cells: MDA-MB-231
In short: as §1

APLP2 = target: T17, APLP2 (Homo sapiens, UniProt Q06481)
T17 construct: endogenous in cells; host or cells: MDA-MB-231
In short: as §1

RSF1 = target: T18, RSF1 (Homo sapiens, UniProt Q96T23)
T18 construct: endogenous in cells; host or cells: MDA-MB-231
In short: as §1

COL2A1 = target: T19, COL2A1 (Homo sapiens, UniProt P02458)
T19 construct: endogenous in cells; host or cells: MDA-MB-231
In short: as §1

CLPP = target: T20, CLPP (Homo sapiens, UniProt Q16740)
T20 construct: endogenous in cells; host or cells: MDA-MB-231
In short: as §1

FUBP3 = target: T21, FUBP3 (Homo sapiens, UniProt Q96I24)
T21 construct: 148 targets unique to Compound 1 in MDA-MB-231 intact cells; endogenous in cells; host or cells: MDA-MB-231
In short: as §1

HNRNPR = target: T22, HNRNPR (Homo sapiens, UniProt O43390)
T22 construct: endogenous in cells; host or cells: MDA-MB-231
In short: as §1

APP = target: T23, APP (Homo sapiens, UniProt P05067)
T23 construct: endogenous in cells; host or cells: MDA-MB-231
In short: as §1

HNRNPA3 = target: T24, HNRNPA3 (Homo sapiens, UniProt P51991)
T24 construct: 148 targets unique to Compound 1 in MDA-MB-231 intact cells; endogenous in cells; host or cells: MDA-MB-231
In short: as §1

ZNF608 = target: T25, ZNF608 (Homo sapiens, UniProt Q9ULD9)
T25 construct: endogenous in cells; host or cells: MDA-MB-231
In short: as §1

SYNCRIP = target: T26, SYNCRIP (Homo sapiens, UniProt O60506)
T26 construct: endogenous in cells; host or cells: MDA-MB-231
In short: as §1

LTBP2 = target: T27, LTBP2 (Homo sapiens, UniProt Q14767)
T27 construct: endogenous in cells; host or cells: MDA-MB-231
In short: as §1

HNRNPA2B1 = target: T28, HNRNPA2B1 (Homo sapiens, UniProt P22626)
T28 construct: 148 targets unique to Compound 1 in MDA-MB-231 intact cells; endogenous in cells; host or cells: MDA-MB-231
In short: as §1

PIK3R4 = target: T29, PIK3R4 (Homo sapiens, UniProt Q99570)
T29 construct: endogenous in cells; host or cells: MDA-MB-231
In short: as §1

SART3 = target: T30, SART3 (Homo sapiens, UniProt Q15020)
T30 construct: endogenous in cells; host or cells: MDA-MB-231
In short: as §1

ELL = target: T31, ELL (Homo sapiens, UniProt P55199)
T31 construct: 148 targets unique to Compound 1 in MDA-MB-231 intact cells; endogenous in cells; host or cells: MDA-MB-231
In short: as §1

TLE5 = target: T32, TLE5 (Homo sapiens, UniProt Q08117)
T32 construct: endogenous in cells; host or cells: MDA-MB-231
In short: as §1

GSK3A = target: T33, GSK3A (Homo sapiens, UniProt P49840)
T33 construct: endogenous in cells; host or cells: MDA-MB-231
In short: as §1

MATR3 = target: T34, MATR3 (Homo sapiens, UniProt P43243)
T34 construct: endogenous in cells; host or cells: MDA-MB-231
In short: as §1

CDK7 = target: T35, CDK7 (Homo sapiens, UniProt P50613)
T35 construct: endogenous in cells; host or cells: MDA-MB-231
In short: as §1

GCAT = target: T36, GCAT (Homo sapiens, UniProt O75600)
T36 construct: 148 targets unique to Compound 1 in MDA-MB-231 intact cells; endogenous in cells; host or cells: MDA-MB-231
In short: as §1

T3 sequence (P49841 whole entry): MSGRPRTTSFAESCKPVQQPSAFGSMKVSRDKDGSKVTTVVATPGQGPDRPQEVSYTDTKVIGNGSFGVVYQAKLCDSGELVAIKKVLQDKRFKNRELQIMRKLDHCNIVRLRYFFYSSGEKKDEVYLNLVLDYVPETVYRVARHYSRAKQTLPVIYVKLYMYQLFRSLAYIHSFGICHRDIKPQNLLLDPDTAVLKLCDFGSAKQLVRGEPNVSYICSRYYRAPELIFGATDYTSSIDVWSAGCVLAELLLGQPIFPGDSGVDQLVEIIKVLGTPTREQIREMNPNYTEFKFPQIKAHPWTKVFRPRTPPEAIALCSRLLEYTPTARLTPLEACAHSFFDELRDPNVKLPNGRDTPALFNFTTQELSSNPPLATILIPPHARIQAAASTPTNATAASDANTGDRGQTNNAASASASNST
T30 sequence (Q15020 whole entry): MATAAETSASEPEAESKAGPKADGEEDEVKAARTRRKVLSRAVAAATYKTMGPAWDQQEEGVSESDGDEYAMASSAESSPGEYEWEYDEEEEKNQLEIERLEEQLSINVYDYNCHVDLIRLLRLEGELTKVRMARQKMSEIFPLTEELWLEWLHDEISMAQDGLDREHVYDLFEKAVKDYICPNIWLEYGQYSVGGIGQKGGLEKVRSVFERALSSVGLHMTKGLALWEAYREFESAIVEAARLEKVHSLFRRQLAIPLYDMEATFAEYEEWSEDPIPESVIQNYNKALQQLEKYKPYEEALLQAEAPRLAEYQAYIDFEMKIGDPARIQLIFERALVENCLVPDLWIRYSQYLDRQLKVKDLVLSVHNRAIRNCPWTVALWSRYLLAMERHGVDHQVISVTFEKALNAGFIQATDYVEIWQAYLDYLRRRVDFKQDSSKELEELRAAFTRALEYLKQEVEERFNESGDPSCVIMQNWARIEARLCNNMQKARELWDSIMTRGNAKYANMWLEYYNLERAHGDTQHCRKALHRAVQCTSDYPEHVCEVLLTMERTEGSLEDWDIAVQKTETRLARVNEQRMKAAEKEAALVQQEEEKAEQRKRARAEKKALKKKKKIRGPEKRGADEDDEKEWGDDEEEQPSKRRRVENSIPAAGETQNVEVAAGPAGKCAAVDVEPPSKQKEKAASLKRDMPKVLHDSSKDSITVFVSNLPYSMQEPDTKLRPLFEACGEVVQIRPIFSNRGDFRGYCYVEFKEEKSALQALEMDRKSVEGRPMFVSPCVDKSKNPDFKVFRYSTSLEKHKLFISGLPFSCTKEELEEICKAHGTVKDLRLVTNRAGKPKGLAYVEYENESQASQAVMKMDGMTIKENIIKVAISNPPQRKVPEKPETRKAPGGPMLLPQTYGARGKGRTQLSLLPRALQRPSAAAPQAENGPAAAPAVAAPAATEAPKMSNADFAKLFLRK
T18 sequence (Q96T23 whole entry): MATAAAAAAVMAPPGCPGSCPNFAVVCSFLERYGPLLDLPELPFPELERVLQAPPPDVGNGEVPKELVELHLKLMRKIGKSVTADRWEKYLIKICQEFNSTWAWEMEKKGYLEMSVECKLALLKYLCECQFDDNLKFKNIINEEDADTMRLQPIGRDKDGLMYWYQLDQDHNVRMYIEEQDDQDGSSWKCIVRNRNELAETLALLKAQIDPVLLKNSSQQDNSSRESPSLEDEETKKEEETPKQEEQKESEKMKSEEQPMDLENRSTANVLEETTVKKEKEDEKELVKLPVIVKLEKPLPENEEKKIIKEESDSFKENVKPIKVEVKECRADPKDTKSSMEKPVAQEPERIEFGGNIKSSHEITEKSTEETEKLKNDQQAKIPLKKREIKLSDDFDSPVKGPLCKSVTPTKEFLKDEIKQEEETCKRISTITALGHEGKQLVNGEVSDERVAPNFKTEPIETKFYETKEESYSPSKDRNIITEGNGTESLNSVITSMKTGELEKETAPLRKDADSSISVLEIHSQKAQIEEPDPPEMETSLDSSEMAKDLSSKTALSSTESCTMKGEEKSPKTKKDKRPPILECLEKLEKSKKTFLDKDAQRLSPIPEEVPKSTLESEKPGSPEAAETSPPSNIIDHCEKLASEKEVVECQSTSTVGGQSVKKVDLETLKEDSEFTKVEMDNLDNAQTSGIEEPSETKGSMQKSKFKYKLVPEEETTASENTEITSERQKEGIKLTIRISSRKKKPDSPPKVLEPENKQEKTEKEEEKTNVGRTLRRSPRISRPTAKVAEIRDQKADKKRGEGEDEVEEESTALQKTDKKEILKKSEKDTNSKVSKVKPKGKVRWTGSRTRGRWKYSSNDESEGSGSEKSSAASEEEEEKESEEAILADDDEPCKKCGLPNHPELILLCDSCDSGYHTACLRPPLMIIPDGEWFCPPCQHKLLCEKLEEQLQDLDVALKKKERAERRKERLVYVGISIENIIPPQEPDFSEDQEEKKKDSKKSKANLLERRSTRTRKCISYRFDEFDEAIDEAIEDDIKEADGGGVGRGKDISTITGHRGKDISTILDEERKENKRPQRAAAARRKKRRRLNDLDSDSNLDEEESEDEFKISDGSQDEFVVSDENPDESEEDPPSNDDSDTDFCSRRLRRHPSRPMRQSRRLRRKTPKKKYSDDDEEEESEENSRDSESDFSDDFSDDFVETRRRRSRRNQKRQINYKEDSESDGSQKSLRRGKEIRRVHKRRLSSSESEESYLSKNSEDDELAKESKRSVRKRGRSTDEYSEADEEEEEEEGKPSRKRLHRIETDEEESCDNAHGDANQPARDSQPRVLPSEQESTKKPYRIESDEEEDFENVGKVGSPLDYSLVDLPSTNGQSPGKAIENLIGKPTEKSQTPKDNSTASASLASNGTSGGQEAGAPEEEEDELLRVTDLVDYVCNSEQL
T31 sequence (P55199 whole entry): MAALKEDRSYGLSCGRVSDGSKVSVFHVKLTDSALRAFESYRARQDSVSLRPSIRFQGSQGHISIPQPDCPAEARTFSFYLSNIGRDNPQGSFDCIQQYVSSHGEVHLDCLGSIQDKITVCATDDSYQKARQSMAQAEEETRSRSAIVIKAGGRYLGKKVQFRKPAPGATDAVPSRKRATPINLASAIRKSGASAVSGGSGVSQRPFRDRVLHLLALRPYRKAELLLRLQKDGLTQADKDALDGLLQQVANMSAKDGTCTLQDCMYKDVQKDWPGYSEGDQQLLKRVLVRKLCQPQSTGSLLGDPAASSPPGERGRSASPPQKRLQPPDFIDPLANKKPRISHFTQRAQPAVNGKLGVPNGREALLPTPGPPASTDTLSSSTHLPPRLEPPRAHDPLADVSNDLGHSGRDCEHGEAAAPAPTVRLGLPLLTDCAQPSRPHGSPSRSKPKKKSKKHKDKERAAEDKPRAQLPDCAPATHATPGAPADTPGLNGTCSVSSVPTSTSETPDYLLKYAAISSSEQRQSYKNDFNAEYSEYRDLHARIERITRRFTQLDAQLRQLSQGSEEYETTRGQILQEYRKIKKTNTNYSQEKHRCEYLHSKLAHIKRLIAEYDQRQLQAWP
T9 sequence (P14866 whole entry): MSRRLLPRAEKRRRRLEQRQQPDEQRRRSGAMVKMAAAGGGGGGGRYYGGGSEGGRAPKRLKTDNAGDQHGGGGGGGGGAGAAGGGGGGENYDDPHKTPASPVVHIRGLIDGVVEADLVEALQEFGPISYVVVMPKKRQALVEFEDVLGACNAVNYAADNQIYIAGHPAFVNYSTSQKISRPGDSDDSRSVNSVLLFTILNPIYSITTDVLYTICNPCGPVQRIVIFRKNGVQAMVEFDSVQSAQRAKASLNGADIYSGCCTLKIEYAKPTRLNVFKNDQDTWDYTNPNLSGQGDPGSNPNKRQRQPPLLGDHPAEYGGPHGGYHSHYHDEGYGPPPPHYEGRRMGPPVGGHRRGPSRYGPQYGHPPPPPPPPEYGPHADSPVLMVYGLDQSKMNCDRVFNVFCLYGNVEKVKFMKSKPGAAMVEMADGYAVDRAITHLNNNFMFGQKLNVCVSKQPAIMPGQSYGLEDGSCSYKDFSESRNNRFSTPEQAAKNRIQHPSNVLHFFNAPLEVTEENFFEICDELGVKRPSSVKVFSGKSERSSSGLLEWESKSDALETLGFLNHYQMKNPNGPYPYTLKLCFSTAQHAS
T10 sequence (Q13188 whole entry): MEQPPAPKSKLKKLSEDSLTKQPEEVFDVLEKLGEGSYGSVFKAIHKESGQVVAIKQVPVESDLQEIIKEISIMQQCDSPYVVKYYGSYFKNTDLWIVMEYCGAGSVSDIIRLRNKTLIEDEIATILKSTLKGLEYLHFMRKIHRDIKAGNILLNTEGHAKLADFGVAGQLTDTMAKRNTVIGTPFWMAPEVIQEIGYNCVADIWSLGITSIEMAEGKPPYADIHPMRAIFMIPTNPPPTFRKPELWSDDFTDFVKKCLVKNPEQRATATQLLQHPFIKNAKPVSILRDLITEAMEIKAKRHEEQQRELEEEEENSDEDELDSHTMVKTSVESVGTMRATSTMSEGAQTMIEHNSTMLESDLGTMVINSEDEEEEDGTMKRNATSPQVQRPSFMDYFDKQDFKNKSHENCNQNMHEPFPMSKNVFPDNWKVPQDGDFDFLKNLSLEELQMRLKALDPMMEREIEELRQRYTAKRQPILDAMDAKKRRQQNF
T12 sequence (P16035 27-220): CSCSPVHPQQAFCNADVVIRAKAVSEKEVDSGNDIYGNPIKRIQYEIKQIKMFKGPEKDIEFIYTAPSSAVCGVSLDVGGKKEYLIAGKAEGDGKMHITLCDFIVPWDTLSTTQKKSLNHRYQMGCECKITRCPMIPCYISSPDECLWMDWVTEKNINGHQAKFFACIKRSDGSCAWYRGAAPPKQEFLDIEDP
T32 sequence (Q08117 whole entry): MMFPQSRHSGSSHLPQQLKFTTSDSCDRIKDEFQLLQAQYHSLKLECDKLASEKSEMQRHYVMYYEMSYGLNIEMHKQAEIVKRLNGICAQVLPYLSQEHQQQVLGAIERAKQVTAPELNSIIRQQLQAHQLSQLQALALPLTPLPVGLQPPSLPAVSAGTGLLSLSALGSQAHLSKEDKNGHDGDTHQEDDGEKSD

CN1CCN(c2ccc(Nc3ncc4cc(C#N)c(=O)n(C5CCCC5)c4n3)cc2)CC1 [Compound 1, 8-cyclopentyl-2-((4-(4-methylpiperazin-1-yl)phenyl)amino)-7-oxo-7,8-dihydropyrido[2,3-d]pyrimidine-6-carbonitrile]
Group (CETSA-MS thermal shift) (ELAVL1): Stabilization
Group (CETSA-MS thermal shift) (ILF3): Stabilization
Group (CETSA-MS thermal shift) (GSK3B): Stabilization
Group (CETSA-MS thermal shift) (STK10): Stabilization
Group (CETSA-MS thermal shift) (PRPF4B): Stabilization
Group (CETSA-MS thermal shift) (LEO1): Stabilization
Group (CETSA-MS thermal shift) (RNF5): Stabilization
Group (CETSA-MS thermal shift) (MTG1): Stabilization
Group (CETSA-MS thermal shift) (HNRNPL): Stabilization
Group (CETSA-MS thermal shift) (STK3): Destabilization
Group (CETSA-MS thermal shift) (IGFBP4): Stabilization
Group (CETSA-MS thermal shift) (TIMP2): Stabilization
Group (CETSA-MS thermal shift) (TTK): Stabilization
Group (CETSA-MS thermal shift) (NAP1L1): Stabilization
Group (CETSA-MS thermal shift) (AXL): Stabilization
Group (CETSA-MS thermal shift) (SCP2): Destabilization
Group (CETSA-MS thermal shift) (APLP2): Stabilization
Group (CETSA-MS thermal shift) (RSF1): Stabilization
Group (CETSA-MS thermal shift) (COL2A1): Stabilization
Group (CETSA-MS thermal shift) (CLPP): Stabilization
Group (CETSA-MS thermal shift) (FUBP3): Stabilization
Group (CETSA-MS thermal shift) (HNRNPR): Stabilization
Group (CETSA-MS thermal shift) (APP): Stabilization
Group (CETSA-MS thermal shift) (HNRNPA3): Stabilization
Group (CETSA-MS thermal shift) (ZNF608): Destabilization
Group (CETSA-MS thermal shift) (SYNCRIP): Stabilization
Group (CETSA-MS thermal shift) (LTBP2): Stabilization
Group (CETSA-MS thermal shift) (HNRNPA2B1): Stabilization
Group (CETSA-MS thermal shift) (PIK3R4): Stabilization
Group (CETSA-MS thermal shift) (SART3): Destabilization
Group (CETSA-MS thermal shift) (ELL): Stabilization
Group (CETSA-MS thermal shift) (TLE5): Destabilization
Group (CETSA-MS thermal shift) (GSK3A): Stabilization
Group (CETSA-MS thermal shift) (MATR3): Stabilization
Group (CETSA-MS thermal shift) (CDK7): Destabilization
Group (CETSA-MS thermal shift) (GCAT): Stabilization
